Experimental data as given in ChEMBL document CHEMBL1133570, “Synthesis and in vitro and in vivo activity of (-)-(1R,5R,9R)- and (+)-(1S,5S,9S)-N-alkenyl-, -N-alkynyl-, and -N-cyanoalkyl-5, 9-dimethyl-2'-hydroxy-6,7-benzomorphan homologues” (J Med Chem, 2000).
Active and inactive are the calls of the source. Unless noted, the rule behind the calls is not given here.

Assays:
[1] = molecular target: T1, Opioid receptor (Mus musculus) (UniProt P42866+P32300+P33534); experiment: Evaluated in vivo for the antinociceptive and opioid antagonist assays in ICR male mice, Tail-Flick agonist and antagonist tests was performed; IA, Inactive less than 70% of mice affected at 30 mg/kg.; assay type: functional, organism-based; parameters: dose 30 mg/kg
T1 sequence (P32300 whole entry, looked up): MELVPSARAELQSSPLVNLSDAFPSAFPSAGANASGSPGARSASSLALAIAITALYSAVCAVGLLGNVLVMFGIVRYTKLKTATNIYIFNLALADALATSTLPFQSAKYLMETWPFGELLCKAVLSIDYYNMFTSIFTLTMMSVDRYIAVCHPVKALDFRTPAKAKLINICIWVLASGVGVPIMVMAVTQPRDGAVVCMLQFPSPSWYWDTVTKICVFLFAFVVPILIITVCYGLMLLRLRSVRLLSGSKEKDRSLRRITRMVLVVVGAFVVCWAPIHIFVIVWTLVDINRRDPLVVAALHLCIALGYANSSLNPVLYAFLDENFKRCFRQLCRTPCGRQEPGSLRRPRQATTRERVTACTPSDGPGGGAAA
T1 sequence (P33534 whole entry, looked up): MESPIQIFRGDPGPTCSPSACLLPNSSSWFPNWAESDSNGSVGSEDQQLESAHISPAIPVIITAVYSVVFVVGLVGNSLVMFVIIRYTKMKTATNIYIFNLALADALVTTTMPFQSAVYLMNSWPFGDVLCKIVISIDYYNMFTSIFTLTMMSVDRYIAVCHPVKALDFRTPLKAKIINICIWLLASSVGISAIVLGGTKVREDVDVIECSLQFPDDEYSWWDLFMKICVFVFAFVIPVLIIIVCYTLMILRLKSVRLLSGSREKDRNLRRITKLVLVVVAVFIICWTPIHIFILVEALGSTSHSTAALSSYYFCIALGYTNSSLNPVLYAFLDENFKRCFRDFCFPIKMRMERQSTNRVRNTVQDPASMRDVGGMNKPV
T1 sequence (P42866 whole entry, looked up): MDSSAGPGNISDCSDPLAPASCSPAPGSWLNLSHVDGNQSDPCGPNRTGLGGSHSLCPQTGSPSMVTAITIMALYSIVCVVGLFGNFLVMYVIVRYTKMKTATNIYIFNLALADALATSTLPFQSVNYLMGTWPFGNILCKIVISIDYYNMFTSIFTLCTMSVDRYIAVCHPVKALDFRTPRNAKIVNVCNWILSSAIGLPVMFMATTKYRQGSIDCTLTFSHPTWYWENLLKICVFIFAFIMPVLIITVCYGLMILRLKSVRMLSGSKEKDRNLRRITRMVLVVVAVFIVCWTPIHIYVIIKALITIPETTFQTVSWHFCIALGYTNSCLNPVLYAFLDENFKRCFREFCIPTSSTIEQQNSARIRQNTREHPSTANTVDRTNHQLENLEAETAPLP

[2] = molecular target: Kappa-type opioid receptor (Mus musculus, UniProt P33534); experiment: (§1) Ki value determined against Opioid receptor kappa 1 using [3H]U69, 593 at the Kd concentration 0.95 nM
Kappa-type opioid receptor, sequence (P33534 whole entry): as the sequence (P33534 whole entry, looked up) above

[3] = molecular target: Delta-type opioid receptor (Mus musculus, UniProt P32300); experiment: Ki value determined against Opioid receptor delta 1 using [3H]DPDPE at the Kd concentration 2.1 nM
Delta-type opioid receptor, sequence (P32300 whole entry): as the sequence (P32300 whole entry, looked up) above

[4] = molecular target: Mu-type opioid receptor (Mus musculus, UniProt P42866); experiment: (§2) Ki value determined against Opioid receptor mu 1 using [3H]DAMGO at the Kd concentration 0.57 nM
Mu-type opioid receptor, sequence (P42866 whole entry): as the sequence (P42866 whole entry, looked up) above

[5] = molecular target: Sigma non-opioid intracellular receptor 1 (Mus musculus, UniProt O55242); experiment: Ki value determined against Sigma opioid receptor type 1 using [(+)-[3H]pentazocine at the Kd concentration 2nM
Sigma non-opioid intracellular receptor 1 (Mus musculus, UniProt O55242), sequence (O55242 whole entry): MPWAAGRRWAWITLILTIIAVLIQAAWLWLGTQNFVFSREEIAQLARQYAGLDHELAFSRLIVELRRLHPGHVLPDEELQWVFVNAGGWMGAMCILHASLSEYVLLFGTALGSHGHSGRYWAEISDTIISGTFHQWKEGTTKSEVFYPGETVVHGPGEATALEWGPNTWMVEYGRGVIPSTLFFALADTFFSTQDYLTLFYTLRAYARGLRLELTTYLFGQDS

[6] = molecular target: Sigma 2 receptor; experiment: Ki value determined against Sigma opioid receptor type 2 using [3H]DTG (5 nM) with 1 uM dextrallorphan to mask sigma-1 binding; parameters: species or system Mus musculus
[7] = molecular target: T1, Opioid receptor (Mus musculus); experiment: Hot plate test was carried out for mouse injected sc and the antinociceptive activity was determined from the response;IA, Inactive less than 70% of mice affected at 30 mg/kg.; assay type: functional, organism-based; parameters: dose 30 mg/kg
[8] = molecular target: T1, Opioid receptor (Mus musculus); experiment: Using the PPQ (paraphenylquinone) assay selective opioid receptor agonist activity was established in mice; assay type: functional
[9] = (§3) Tail-flick vs. morphine ED80(morphine sulfate substituted completely) was studied to determine selective in vivo agonist and antagonist activity.; assay type: functional
[10] = tested on: Mus musculus; experiment: (§4) Tail-flick vs. morphine ED80(morphine sulfate substituted completely) was studied to determine selective in vivo agonist and antagonist activity.;IA, Inactive less than 70% of mice affected at 30 mg/kg.; assay type: functional, organism-based; parameters: dose 30 mg/kg
[11] = molecular target: Kappa-type opioid receptor (Mus musculus) (UniProt P33534); experiment: as §1
Kappa-type opioid receptor (Mus musculus), sequence (P33534 whole entry): as the sequence (P33534 whole entry, looked up) above

[12] = molecular target: Mu-type opioid receptor (Mus musculus) (UniProt P42866); experiment: as §2
Mu-type opioid receptor (Mus musculus), sequence (P42866 whole entry): as the sequence (P42866 whole entry, looked up) above

[13] = molecular target: Sigma non-opioid intracellular receptor 1 (Rattus norvegicus, UniProt Q9R0C9); experiment: Ki value determined against Sigma opioid receptor type 1 using [(+)-[3H]pentazocine at the Kd concentration 2 nM.
Sigma non-opioid intracellular receptor 1 (Rattus norvegicus, UniProt Q9R0C9), sequence (Q9R0C9 whole entry): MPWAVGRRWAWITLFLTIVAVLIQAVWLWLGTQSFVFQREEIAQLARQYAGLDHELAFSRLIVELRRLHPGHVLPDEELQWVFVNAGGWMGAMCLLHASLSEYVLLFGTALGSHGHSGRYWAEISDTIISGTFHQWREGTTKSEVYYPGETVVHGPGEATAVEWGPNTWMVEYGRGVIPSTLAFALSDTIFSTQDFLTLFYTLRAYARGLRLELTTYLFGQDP

[14] = molecular target: T1, Opioid receptor (Mus musculus); experiment: Evaluated in vivo for the antinociceptive and opioid antagonist assays in ICR male mice, Tail-Flick agonist and antagonist tests was performed; assay type: functional, organism-based
[15] = molecular target: T1, Opioid receptor (Mus musculus); experiment: Hot plate test was carried out for mouse injected sc and the antinociceptive activity was determined from the response; assay type: functional, organism-based
[16] = as §4; assay type: functional, organism-based; parameters: dose 30 mg/kg
[17] = molecular target: T1, Opioid receptor (Mus musculus); experiment: Antinociceptive activity was determined in vivo in all opioid type tests; assay type: organism-based
[18] = molecular target: T1, Opioid receptor (Mus musculus); experiment: as §3; assay type: functional, organism-based
[19] = molecular target: T1, Opioid receptor (Mus musculus); settings: Tail
Description: (§5) Narcotic antagonist activity in the mouse tail-flick versus morphine assay

[20] = molecular target: Delta-type opioid receptor (Homo sapiens) (UniProt P41143); experiment: Antinociceptive activity was determined at Opioid receptor delta 1 using DPDPE; assay type: functional
Delta-type opioid receptor (Homo sapiens), sequence (P41143 whole entry): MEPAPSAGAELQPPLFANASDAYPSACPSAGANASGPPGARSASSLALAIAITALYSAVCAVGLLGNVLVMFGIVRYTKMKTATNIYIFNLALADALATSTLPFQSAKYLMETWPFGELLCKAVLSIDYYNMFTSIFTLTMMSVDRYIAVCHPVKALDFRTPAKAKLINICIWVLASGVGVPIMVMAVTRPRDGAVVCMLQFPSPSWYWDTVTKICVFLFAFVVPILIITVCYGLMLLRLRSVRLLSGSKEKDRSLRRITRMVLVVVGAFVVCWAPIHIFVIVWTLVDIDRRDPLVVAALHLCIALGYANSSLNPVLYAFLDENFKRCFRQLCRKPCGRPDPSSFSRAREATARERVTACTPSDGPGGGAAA

[21] = molecular target: Delta-type opioid receptor (Homo sapiens) (UniProt P41143); experiment: Antinociceptive activity was determined at Opioid receptor delta 1 versus ED80 of U69,593; assay type: functional
[22] = molecular target: Delta-type opioid receptor (Homo sapiens) (UniProt P41143); experiment: Antinociceptive activity was determined at Opioid receptor delta 1 versus ED80 of morphine; assay type: functional
[23] = molecular target: Sigma 2 receptor; experiment: Ki value determined against Sigma opioid receptor type 2 using [3H]DTG(5nM) with 1 uM dextrallorphan to mask sigma1 binding; parameters: species or system Mus musculus
[24] = molecular target: T1, Opioid receptor (Mus musculus)
Description: Antinociceptive activity was determined in vivo in all opioid type tests, expressed as AD50 administered subcutaneously

[25] = molecular target: T1, Opioid receptor (Mus musculus); settings: Tail; remark: listed apart in the source
Description: as §5

[26] = molecular target: T1, Opioid receptor (Mus musculus); experiment: Using the PPQ (paraphenylquinone) assay selective opioid receptor agonist activity was established in mice;IA, Inactive less than 70% of mice affected at 30 mg/kg.; assay type: functional, organism-based; parameters: dose 30 mg/kg

SMILES	Ki [2] [nM]	Ki [3] [nM]	Ki [4] [nM]	Ki [5] [nM]	Ki [6] [nM]	ED50 [8] [mg/kg]	Ki [13] [nM]	also measured
C=CCCCN1CC[C@]2(C)c3cc(O)ccc3CC1[C@@H]2C	5.9	60	15	50	180	1.4		ED50 [1]: inactive; ED50 [7]: inactive; ED50 [9]: 6 mg/kg
C[C@H]1C2Cc3ccc(O)cc3[C@@]1(C)CCN2CCCCCCC#N	38	350	90	80	150	9		ED50 [1]: inactive; ED50 [7]: inactive; ED50 [10]: inactive
CC1C2Cc3ccc(O)cc3[C@@]1(C)CCN2CC#N (stereo partly drawn)							11000	inhibition [11]: 20.4%; inhibition [12]: 18.6%
C#CCCN1CC[C@]2(C)c3cc(O)ccc3CC1[C@@H]2C	1.4	10	4.6	5900	2200	0.04		ED50 [14]: 0.05 mg/kg; ED50 [15]: 0.1 mg/kg; ED50 [16]: inactive
CC#CCN1CC[C@]2(C)c3cc(O)ccc3CC1[C@@H]2C (stereo in doubt; 12) [listing 1 of 2 here]						0.1		ED50 [1]: inactive; ED50 [7]: inactive
CC1C2Cc3ccc(O)cc3[C@@]1(C)CCN2CCCCCC#N (stereo partly drawn)	500						33	inhibition [12]: 12.4%
COC(=O)/C=C/C(=O)N[C@@H]1CC[C@@]2(O)[C@H]3Cc4ccc(O)c5c4[C@@]2(CCN3CC2CC2)[C@H]1O5								AD50 [17]: 0.6 µg brain-1
CC#CCN1CC[C@]2(C)c3cc(O)ccc3CC1[C@@H]2C (stereo in doubt; 12) [listing 2 of 2 here]	3.9	60	0.5	9800	4400			ED50 [9]: 0.3 mg/kg
C=CCCCCN1CC[C@]2(C)c3cc(O)ccc3CC1[C@@H]2C	5.8	56	10	22	80	0.8		ED50 [14]: 0.3 mg/kg; ED50 [15]: 0.6 mg/kg; ED50 [16]: inactive
C=CCCCN1CC[C@]2(C)c3cc(O)ccc3CC1C2C (stereo partly drawn)	400						2.1	inhibition [12]: 20.5%
CC1C2Cc3ccc(O)cc3[C@@]1(C)CCN2CCC#N (stereo partly drawn)	600						250	inhibition [12]: 11.6%
C=CCN1CC[C@]2(C)c3cc(O)ccc3CC1[C@@H]2C	0.3	5.5	0.9	11000	3200	0.1		ED50 [1]: inactive; ED50 [7]: inactive; ED50 [9]: 0.2 mg/kg
C=CCCN1CC[C@]2(C)c3cc(O)ccc3CC1[C@@H]2C	1.3	21	2.1	1600	620	0.3		ED50 [14]: 0.05 mg/kg; ED50 [18]: 4 mg/kg; ED50 [15]: 0.8 mg/kg
CC#CCN1CC[C@]2(C)c3cc(O)ccc3CC1[C@@H]2C (stereo in doubt; 26) [listing 1 of 2 here]								AD50 [19]: 6.7 mg/kg
C[C@H]1C2Cc3ccc(O)cc3[C@@]1(C)CCN2CCCC#N	0.4	23	5.8	1700	8400	0.01		ED50 [14]: 0.4 mg/kg; ED50 [15]: 1 mg/kg
C[C@H]1C2Cc3ccc(O)cc3[C@@]1(C)CCN2CCCCC#N	6.9	160	18	490	2800	3		ED50 [14]: 15 mg/kg

SMILES	Ki [2] [nM]	Ki [3] [nM]	Ki [4] [nM]	Ki [5] [nM]	Ki [6] [nM]	ED50 [8] [mg/kg]	Ki [13] [nM]	also measured
CC1C2Cc3ccc(O)cc3[C@@]1(C)CCN2CCCC#N (stereo partly drawn)	240						20	inhibition [12]: 9%
C#CCCCN1CC[C@]2(C)c3cc(O)ccc3CC1[C@@H]2C	11	140	18	200	440	12		ED50 [1]: inactive; AD50 [20]: 0.05 mg/kg; AD50 [21]: 1.2 mg/kg; AD50 [22]: 20 mg/kg; ED50 [7]: inactive; ED50 [9]: 2 mg/kg
CC#CCN1CC[C@]2(C)c3cc(O)ccc3CC1[C@@H]2C (stereo in doubt; 26) [listing 2 of 2 here]				160				Ki [23]: 12000 nM
C#CCCCN1CC[C@]2(C)c3cc(O)ccc3CC1C2C (stereo partly drawn)							18	
C=CCCCCN1CC[C@]2(C)c3cc(O)ccc3CC1C2C (stereo partly drawn)			980				1.1	
Oc1ccc2c3c1O[C@H]1c4[nH]c5ccccc5c4C[C@@]4(O)[C@@H](C2)N(CC2CC2)CC[C@]314								AD50 [24]: 3.1 mg/kg
C#CCCN1CC[C@]2(C)c3cc(O)ccc3CC1C2C (stereo partly drawn)							110	
Oc1ccc2c3c1O[C@H]1c4[nH]c5c(c4C[C@@]4(O)[C@@H](C2)N(CC2CC2)CC[C@]314)C[C@@]1(O)[C@H]2Cc3ccc(O)c4c3[C@@]1(CCN2CC1CC1)[C@H]5O4								AD50 [24]: 0.3 mg/kg
C=CCCN1CC[C@]2(C)c3cc(O)ccc3CC1C2C (stereo partly drawn)							15	inhibition [11]: 35.5%; inhibition [12]: 41%
C[C@H]1C2Cc3ccc(O)cc3[C@@]1(C)CCN2CC#N	70	590	100	13000	19000	1.5		ED50 [14]: 12 mg/kg; ED50 [15]: 9 mg/kg
C=CCN1CC[C@]2(C)c3cc(O)ccc3CC1C2C (stereo partly drawn)							300	inhibition [11]: 31%; inhibition [12]: 28.5%; AD50 [25]: 13.2 mg/kg
CC1C2Cc3ccc(O)cc3[C@@]1(C)CCN2CCCCCCC#N (stereo partly drawn)							16	inhibition [11]: 17.7%; inhibition [12]: 37%
C[C@H]1C2Cc3ccc(O)cc3[C@@]1(C)CCN2CCCCCC#N	11	220	15	640	380			ED50 [1]: inactive; ED50 [18]: 10 mg/kg; ED50 [7]: inactive; ED50 [26]: inactive
C[C@H]1C2Cc3ccc(O)cc3[C@@]1(C)CCN2CCC#N	0.4	9.8	4.2	9800	51000	0.05		ED50 [14]: 0.3 mg/kg; ED50 [15]: 0.1 mg/kg
CC1C2Cc3ccc(O)cc3[C@@]1(C)CCN2CCCCC#N (stereo partly drawn)	1300		4800				36	
